From patent US20200397965A1, “METHOD AND SYSTEM FOR […] MONOXIDE (CO) ADMINISTRATION TO EX-VIVO FLUIDS” (Julius-Maximilians-Universitaet Wuerzburg, priority 2018, published 2020) come the findings set out here.

This series in a line: ICP-MS analysis for molybdenum in harvested organs and blood after ECCORS CO delivery in veno-arterial ECMO. Type of series: in vivo, landrace-hybrid pigs. The following applies: swine on ECMO with ECCORS, Beck1 injected into FeCl3 secondary circuit behind silicone membrane. The protocol:
After obtaining consent by Regierungspraesidium Freiburg, seven landrace-hybrid pigs (weight 52±2 kg) were anesthetized (continuous infusion of propofol, fentanyl and cisatracurium), mechanically ventilated and monitored with electrocardiogram, pulse-oximetry and invasive blood pressure measurement by cannulating the carotid and pulmonary artery. Instrumentation with veno-arterial ECMO (extracorporeal membrane oxygenation) was carried out in a sterile technique: Venous access was achieved by ultrasound-guided cannulation of femoral vein (21 French HLS cannula, Maquet, Rastatt, Germany), while arterial inflow into the femoral artery was established using 17 French HLS cannula from Maquet, (Rastatt, Germany). The ECMO circuit (primary circuit) was then set-up using a customary centrifugal pump head (Revolution 5, Sorin, Rome, Italy), an oxygenator (EOS ECMO, Sorin, Rome, Italy), and 3/8” tubing for interconnection. The system was regulated using a modified console (core element: SCP-Console, Sorin, Rome, Italy).
The ECCORS was then integrated in line with the oxygenator into the primary ECMO circuit. A commercially available PDMSXA-1.0 silicone membrane module from PermSelect (AnnArbor, II) served as core functional element of the ECCORS. […]
Tissue was analyzed for CO effects and residual CORM constituents in the harvest organs and blood using ICP-MS analysis for molybdenum. […]

Consider Mo(CO)3(CNCH2COOH)3 [CORM], for which the “toxic components of CORM / transition metals found in tissue or blood” value is on record as “no transition metals can be found in the tissue or blood”.
